Data published in patent publication US6831199B1, “Pyrimidine compounds and derivatives thereof” (G. D. Searle & Co., priority 1995, dated 2004).
pIC50: −log10 of the molar value. Where a name gives a salt, the structure may show the parent alone.

What was measured:
[1] = biological target: T1, Human vitronectin receptor (αvβ3) (Homo sapiens, UniProt P05106+P06756); assay: Vitronectin adhesion assay (solid phase receptor assay, competition with biotinylated vitronectin); format: binding; settings: read-out: AvB3 IC50
T1 construct: Human vitronectin receptor (αvβ3) was purified from human placenta; from tissue; host or cells: human placenta
Method: VITRONECTIN ADHESION ASSAY
Assay buffer, OPD substrate tablets, and RIA grade BSA were obtained from Sigma (St. Louis, Mo.). Anti-biotin antibody was obtained from Calbiochem (La Jolla, Calif.). Linbro microtiter plates were obtained from Flow Labs (McLean, Va.). ADP reagent was obtained from Sigma (St. Louis, Mo.).
(§1) Solid Phase Receptor Assays
(§2) The purified human vitronectin receptor (αvβ3) was diluted from stock solutions to 1.0 μg/mL in Tris-buffered saline containing 1.0 mM Ca^++, Mg^++, and Mn^++, pH 7.4 (TBS^+++). The diluted receptor was immediately transferred to Linbro microtiter plates at 100 μL/well (100 ng receptor/well). The plates were sealed and incubated overnight at 4° C. to allow the receptor to bind to the wells. All remaining steps were at room temperature. The assay plates were emptied and 200 μL of 1% RIA grade BSA in TBS^+++(TBS^+++/BSA) were added to block exposed plastic surfaces. Following a 2 hour incubation, the assay plates were washed with TBS^+++ using a 96 well plate washer. Logarithmic serial dilution of the test compound and controls were made starting at a stock concentration of 2 mM and using 2 nM biotinylated vitronectin in TBS^+++/BSA as the diluent. This premixing of labeled ligand with test (or control) ligand, and subsequent transfer of 50 μL aliquots to the assay plate was carried out with a CETUS Propette robot; the final concentration of the labeled ligand was 1 nM and the highest concentration of test compound was 1.0×10^−4 M. The competition occurred for two hours after which all wells were washed with a plate washer as before. Affinity purified horseradish peroxidase labeled goat anti-biotin antibody was diluted 1:3000 in TBS^+++/BSA and 125 μL were added to each well. After 30 minutes, the plates were washed and incubated with OPD/H2O2 substrate in 100 mM/L Citrate buffer, pH 5.0. The plate was read with a microtiter plate reader at a wavelength of 450 nm and when the maximum-binding control wells reached an absorbance of about 1.0, the final A450 were recorded for analysis. The data were analyzed using a macro written for use with the EXCEL™ spreadsheet program. The mean, standard deviation, and % CV were determined for duplicate concentrations. The mean A450 values were normalized to the mean of four maximum-binding controls (no competitor added)(B-MAX). The normalized values were subjected to a four parameter curve fit algorithm [Rodbard et al., Int.

[2] = biological target: T2, Human fibrinogen receptor (αIIbβ3) (Homo sapiens, UniProt P05106+P08514); assay: Purified IIb/IIIa receptor assay (solid phase receptor assay, competition with biotinylated vitronectin); format: binding; settings: read-out: IIb/IIIa IC50
T2 construct: Human fibrinogen receptor (αIIbβ3) was purified from outdated platelets; from tissue; host or cells: outdated human platelets
Method: PURIFIED IIb/IIIa RECEPTOR ASSAY
Human fibrinogen receptor (αIIbβ3) was purified from outdated platelets. […] Biotinylated human vitronectin was prepared by coupling NHS-biotin from Pierce Chemical Company (Rockford, Ill.) to purified vitronectin as previously described. […] Anti-biotin antibody was obtained from Calbiochem (La Jolla, Calif.). Linbro microtiter plates were obtained from Flow Labs (McLean, Va.). ADP reagent was obtained from Sigma (St. Louis, Mo.).
as §1
as §2, with “human fibrinogen” for “human vitronectin”, “receptor (αIIbβ3)” for “receptor (αvβ3)”, “in TBS^+++ (TBS^+++/BSA)” for “in TBS^+++(TBS^+++/BSA)”, “with […]” for “with OPD/H2O2”, “mM/L citrate” for “mM/L Citrate”, “fit algorithm, [Robard” for “fit algorithm [Rodbard”

| pIC50 [1] | pIC50 [2] | SMILES |
| --- | --- | --- |
| 6.38 | 5.09 | O=C(O)CC(NC(=O)CNC(=O)c1cccc(Nc2nc3ccccc3o2)c1)c1cccnc1 (stereo not drawn) [Example 286, β-[[2-[[[3-[[benzoxazol-2-yl)amino]phenyl]carbonyl]amino]acetyl]amino]pyridine-3-propanoic acid, trifluoroacetate salt] |
| 7.13 | 4.10 | O=C(CNC(=O)c1cccc(NC2=NCCCN2)c1)NC(CC(=O)OCCOCCOCCOCCO)c1cc(Cl)cc(Cl)c1 (racemic) [Example 217, (±)[2-[2-[2-(2-hydroxyethoxy)ethoxy]ethoxy]ethyl]3,5-dichloro-β-[[2-[[[3-[(1,4,5,6-tetrahydropyrimidin-2-yl)amino]phenyl]carbonyl]amino]acetyl]amino]benzenepropanoate, trifluoroacetate salt] |
| 7.89 | 5.38 | O=C(O)CC(NC(=O)CNC(=O)c1cccc(NC(=O)NCc2cc(Cl)cc(Cl)c2)c1)c1cccnc1 (stereo not drawn) [Example 273, β-[[2-[[[3-[[[[(3,5-dichlorophenyl)methyl]amino]carbonylamino]phenyl]carbonyl]amino]acetyl]amino]pyridine-3-propanoic acid, trifluoroacetate salt] |
| 9.33 | 6.22 | O=C(O)CC(NC(=O)CNC(=O)c1cccc(NC2=NCCCN2)c1)c1cc(Br)cc(Br)c1 (racemic) [Example 211, (±)3,5-dibromo-β-[[2-[[[3-[(1,4,5,6-tetrahydropyrimidin-2-yl)amino]phenyl]carbonyl]amino]acetyl]amino]benzenepropanoic acid, trifluoroacetate salt] |
| 7.41 | 4.97 | N=C(N)Nc1cccc(C(=O)NCC(=O)NC(CC(=O)O)C2CCCCC2)c1 (racemic) [Example 229, (±)β-[[2-[[[3-[(aminoiminomethyl)amino]phenyl]carbonyl]amino]acetyl]amino]cyclohexanepropanoic acid, trifluoroacetate salt, monohydrate] |
| 8.53 | 6.48 | N=C(N)Nc1cc(C(=O)NCC(=O)NC(CC(=O)O)c2cc(Br)cc(Br)c2)cc(C(F)(F)F)c1 (racemic) [Example 213, (±)β-[[2-[[[3-[(aminoiminomethyl)amino]-5-(trifluoromethyl)phenyl]carbonyl]amino]acetyl]amino]-3,5-dibromobenzenepropanoic acid, trifluoroacetate salt] |
| 4.31 | 4.12 | CCOC(=O)NC(=S)Nc1cccc(C(=O)NCC(=O)NC(CC(=O)O)c2cc(Cl)cc(Cl)c2)c1 (stereo not drawn) [Example 240, 3,5-dichloro-β-[[2-[[[3-[[[(ethoxycarbonyl)amino]thioxomethyl]amino]phenyl]carbonyl]amino]acetyl]amino]benzenepropanoic acid] |

Second part, the molecule before the results:

| SMILES | pIC50 [1] | pIC50 [2] |
| --- | --- | --- |
| O=C(O)CC(NC(=O)CNC(=O)c1cccc(NC2=NCCCC2)c1)c1cc(Cl)cc(Cl)c1 (racemic) [Example 205, (±)3,5-dichloro-β-[[2-[[[3-[(2,3,4,5-tetrahydropyridin-6-yl)amino]phenyl]carbonyl]amino]acetyl]amino]benzenepropanoic acid, trifluoroacetate salt] | 8.77 | 5.91 |
| CCN/C(=N\C)Nc1cccc(C(=O)NCC(=O)NC(CC(=O)O)c2cc(Cl)cc(Cl)c2)c1 (racemic) [Example 295, (±)3,5-dichloro-β-[[2-[[[3-[[(ethylamino)(methylimino)methyl]amino]phenyl]carbonyl]amino]acetyl]amino]benzenepropanoic acid, trifluoroacetate salt] | 6.84 | 5.34 |
| C/N=C(/Nc1cccc(C(=O)NCC(=O)NC(CC(=O)O)c2cc(Cl)cc(Cl)c2)c1)NC(C)C (racemic) [Example 296, (±)3,5-dichloro-β-[[2-[[[3-[[[(1-methylethyl)amino](methylimino)methyl]amino]phenyl]carbonyl]amino]acetyl]amino]benzenepropanoic acid, trifluoroacetate salt] | 6.39 | 5.02 |
| N=C(N)Nc1cccc(C(=O)NCC(=O)NC(CC(=O)O)c2cc(N)ccc2O)c1 (racemic) [Example 234, (±)5-amino-β-[[2-[[[3-[(aminoiminomethyl)amino]phenyl]carbonyl]amino]acetyl]amino]-2-hydroxybenzenepropanoic acid, bis(trifluoroacetate)salt, monohydrate] | 7.05 | 6.08 |
| N=C(N)Nc1cccc(C(=O)NCC(=O)NC(CC(=O)O)c2ccc(Br)cc2)c1 (racemic) [Example 187, (±)β-[[2-[[[3-[(aminoiminomethyl)amino]phenyl]carbonylamino]acetyl]amino]-4-bromobenzenepropanoic acid, trifluoroacetate salt] | 8.88 | 6.58 |
| Nc1nnc(Nc2cccc(C(=O)NCC(=O)NC(CC(=O)O)c3cc(Cl)cc(Cl)c3)c2)[nH]1 (stereo not drawn) [Example 282, β-[[2-[[[3-[(5-amino-1,2,4-triazol-3-yl)amino]phenyl]carbonyl]amino]acetyl]amino]-3,5-dichlorobenzenepropanoic acid, trifluoroacetate salt] | 6.06 | 5.01 |
| O=C(O)CC(NC(=O)CNC(=O)c1cccc(NC2=NCCS2)c1)c1cccnc1 (stereo not drawn) [Example 101, β-[[2-[[[3-[(4,5-dihydrothiazol-2-yl)amino]phenyl]carbonyl]amino]acetyl]amino]pyridine-3-propanoic acid, trifluoroacetate salt] | 5.77 | 4.18 |
| N=C(N)Nc1cc(NC(=N)N)cc(C(=O)NCC(=O)NC(CC(=O)O)c2cc(Cl)cc(Cl)c2)c1 (stereo not drawn) [Example 291, β-[[2-[[[3,5-bis[(aminoiminomethyl)amino]phenyl]carbonyl)amino]acetyl]amino]-3,5-dichlorobenzenepropanoic acid, bis(trifluoroacetate)salt] | 8.91 | 7.43 |
| N=C(N)Nc1cccc(C(=O)NCC(=O)NC(CC(=O)O)c2cc3ccccc3o2)c1 (stereo not drawn) [Example 259, β-[[2-[[[3-[(aminoiminomethyl)amino]phenyl]carbonyl]amino]acetyl]amino]benzofuran-2-propanoic acid, trifluoroacetate salt] | 9.09 | 7.06 |
| C/N=C(\NCc1ccncc1)Nc1cccc(C(=O)NCC(=O)NC(CC(=O)O)c2ccc(F)cc2)c1 (racemic) [Example 299, (±)4-fluoro-β-[[2-[[[3-[[[(4-pyridinylmethyl)amino](methylimino)methyl]amino]phenyl]carbonyl]amino]acetyl]amino]benzenepropanoic acid, trifluoroacetate salt] | 6.96 | 6.03 |
